The source of these data is PubChem BioAssay AID330 (DTP/NCI, 2004).

“And” between values parts separate entries of the source, which are not always exact repeats. Equal values may be shown once. Inconclusive results and toxic doses are left out.

The test has as its system P388 leukemia ip, CD2F1 mice, survival T/C. The test is described as follows: NCI In Vivo Anticancer Drug Screen. Data for tumor model P388 Leukemia (intraperitoneal) in CD2F1 (CDF1) mice. The following applies: endpoint: median survival time, higher = longer survival. In short, it runs like this:
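Mice carrying the transplanted tumor received test compound or vehicle. Survival was recorded in each group, and the value is the treated-group measurement divided by that of the vehicle-treated control group.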

The mark [1] stands for this setting: dose: 25.0 mg/kg/injection, schedule: Q01DX009 (ip), vehicle: saline with Tween-80.
Where [2] appears, read: dose: 50.0 mg/kg/injection, schedule: Q01DX009 (ip), vehicle: saline with Tween-80.
[3] abbreviates: dose: 100.0 mg/kg/injection, schedule: Q01DX009 (ip), vehicle: saline with Tween-80.
The mark [4] stands for this setting: dose: 200.0 mg/kg/injection, schedule: Q01DX009 (ip), vehicle: saline with Tween-80.
Where [5] appears, read: dose: 50.0 mg/kg/injection, schedule: Q01DX005 (ip), vehicle: saline with Tween-80.
Setting [6] is: dose: 50.0 mg/kg/injection, schedule: Q01DX005 (ip), vehicle: Klucel (hydroxypropylcellulose) (HPC).
The mark [7] stands for this setting: dose: 100.0 mg/kg/injection, schedule: Q01DX005 (ip), vehicle: Klucel (hydroxypropylcellulose) (HPC).
Setting [8] is: dose: 200.0 mg/kg/injection, schedule: Q01DX005 (ip), vehicle: Klucel (hydroxypropylcellulose) (HPC).

In the case of `CSC(=S)N/N=C\c1c(CO)cnc(C)c1O`, the T/C (dose: 100.0 mg/kg/injection, schedule: Q04DX002 (ip), vehicle: saline with Tween-80) is 116 % of control and the T/C (dose: 400.0 mg/kg/injection, schedule: Q04DX002 (ip), vehicle: saline with Tween-80) was 113 % of control.

With `CC1(C)CC(=O)C(CC2C(=O)CC(C)(C)CC2=O)C(=O)C1`, the T/C is 87 % of control under setting [1], 97 % of control under setting [2], 103 % of control under setting [3] and 95 % of control under setting [4].

Take `[Cl][Pt+2][Cl].[NH-]CC([NH-])c1ccccc1` (stereo unspecified): the T/C is 179 % of control (dose: 6.25 mg/kg/injection, schedule: Q04DX002 (ip), vehicle: saline with Tween-80); 152 % of control (dose: 12.5 mg/kg/injection, schedule: Q01DX001 (ip), vehicle: Klucel (hydroxypropylcellulose) (HPC)); 194 % of control (dose: 12.5 mg/kg/injection, schedule: Q04DX002 (ip), vehicle: saline with Tween-80); 179 % of control (dose: 25.0 mg/kg/injection, schedule: Q01DX001 (ip), vehicle: Klucel (hydroxypropylcellulose) (HPC)); 220 % of control (dose: 25.0 mg/kg/injection, schedule: Q04DX002 (ip), vehicle: saline with Tween-80); 157 % of control and 163 % of control (dose: 50.0 mg/kg/injection, schedule: Q01DX001 (ip), vehicle: Klucel (hydroxypropylcellulose) (HPC)).

On to `CCCCCCCCCCCCCOC(=O)c1ccc(O)cc1`, for which the T/C under setting [2] is 98 % of control, the T/C under setting [3] is 94 % of control and the T/C under setting [4] is 88 % of control.

As for `c1ccc([Te][Te]c2ccccc2)cc1`, the T/C by setting is: under setting [5], 163 % of control; (dose: 200.0 mg/kg/injection, schedule: Q01DX005 (ip), vehicle: saline with Tween-80) 105 % of control.

Regarding `CCCCNC1=CC(=S)NC(C)(C)C1`, the T/C runs as follows: (dose: 50.0 mg/kg/injection, schedule: Q01DX009 (ip), vehicle: Klucel (hydroxypropylcellulose) (HPC)) 104 % of control; (dose: 100.0 mg/kg/injection, schedule: Q01DX009 (ip), vehicle: Klucel (hydroxypropylcellulose) (HPC)) 86 % of control; (dose: 200.0 mg/kg/injection, schedule: Q01DX009 (ip), vehicle: Klucel (hydroxypropylcellulose) (HPC)) 104 % of control.

As to `CC(C)=C(OS(=O)(=O)C(F)(F)F)[Si](C)(C)C`, the T/C is, setting by setting: under setting [2], 99 % of control; under setting [3], 105 % of control; under setting [4], 105 % of control.

On to `CCOC(=O)N1C(C)=CC=C/C1=C/C=C(C#N)C#N`, for which the T/C (dose: 100.0 mg/kg/injection, schedule: Q01DX001 (ip), vehicle: saline with Tween-80) is 94 % of control; the T/C (dose: 200.0 mg/kg/injection, schedule: Q01DX001 (ip), vehicle: saline with Tween-80) was 90 % of control; the T/C (dose: 400.0 mg/kg/injection, schedule: Q01DX001 (ip), vehicle: saline with Tween-80) was 89 % of control.

Turning to `CN(C)C1C=C(c2ccccc2)OS(=O)(=O)C1` (stereo unspecified), the T/C under setting [2] is 99 % of control, the T/C under setting [3] is 97 % of control and the T/C under setting [4] was 113 % of control.

Take `Cc1cc(=O)oc2cc(OC(=O)C(CCCCN)NC(=O)OCc3ccccc3)ccc12` (stereo unspecified): the T/C is, setting by setting: (dose: 6.25 mg/kg/injection, schedule: Q01DX009 (ip), vehicle: other) 101 % of control; (dose: 12.5 mg/kg/injection, schedule: Q01DX009 (ip), vehicle: other) 99 % of control; (dose: 25.0 mg/kg/injection, schedule: Q01DX009 (ip), vehicle: other) 121 % of control; (dose: 50.0 mg/kg/injection, schedule: Q01DX009 (ip), vehicle: other) 114 % of control; (dose: 100.0 mg/kg/injection, schedule: Q01DX009 (ip), vehicle: other) 117 % of control.

With `CC1(C)CC(=O)C2(OC3=C([Se]2)C(=O)CC(C)(C)C3)C(=O)C1`, the T/C is 110 % of control under setting [2], 107 % of control under setting [3] and 107 % of control under setting [4].

In the case of `COc1ccc(CO)cc1O`, the T/C is 105 % of control and 97 % of control (dose: 100.0 mg/kg/injection, schedule: Q01DX009 (ip), vehicle: saline); 104 % of control and 107 % of control (dose: 200.0 mg/kg/injection, schedule: Q01DX009 (ip), vehicle: saline); 104 % of control (dose: 400.0 mg/kg/injection, schedule: Q01DX009 (ip), vehicle: saline); 95 % of control and 96 % of control (dose: 600.0 mg/kg/injection, schedule: Q01DX009 (ip), vehicle: saline).

Turning to `COc1ccccc1C(=O)Nc1c(C)cccc1Cl`, the T/C runs as follows: (dose: 60.0 mg/kg/injection, schedule: Q01DX005 (ip), vehicle: saline with Tween-80) 100 % of control; (dose: 120.0 mg/kg/injection, schedule: Q01DX005 (ip), vehicle: saline with Tween-80) 103 % of control; (dose: 240.0 mg/kg/injection, schedule: Q01DX005 (ip), vehicle: saline with Tween-80) 94 % of control.

`COP(=O)(CC(=O)NCc1cc(C(C)(C)C)c(O)c(C(C)(C)C)c1)OC`: the T/C was 110 % of control under setting [2], 103 % of control under setting [3] and 100 % of control under setting [4].

As to `CC(Cl)CN1CC(C)OC1=O` (stereo unspecified), the T/C was 105 % of control (dose: 25.0 mg/kg/injection, schedule: Q01DX001 (ip), vehicle: saline); 102 % of control (dose: 50.0 mg/kg/injection, schedule: Q01DX001 (ip), vehicle: saline); 108 % of control (dose: 100.0 mg/kg/injection, schedule: Q01DX001 (ip), vehicle: saline); 108 % of control (dose: 200.0 mg/kg/injection, schedule: Q01DX001 (ip), vehicle: saline).

Turning to `Cc1nc(Nc2ccccc2Cl)c2ccsc2n1`, the T/C under setting [6] is 100 % of control, the T/C under setting [7] was 93 % of control and the T/C under setting [8] is 87 % of control.

For the compound `CCCCOP(=O)(OCCCC)C(CC(=O)N(CCCC)CCCC)C(=O)N(CCCC)CCCC` (stereo unspecified), the T/C by setting is: under setting [5], 98 % of control; (dose: 100.0 mg/kg/injection, schedule: Q01DX005 (ip), vehicle: saline with Tween-80) 102 % of control.

As to `Nc1c[nH]c(=S)s1`, the T/C by setting is: under setting [1], 116 % of control; under setting [2], 114 % of control; under setting [3], 94 % of control.

In the case of `COc1ccccc1NC(=S)Nc1ccccc1OC`, the T/C is, setting by setting: under setting [3], 100 % of control; (dose: 100.0 mg/kg/injection, schedule: Q04DX003 (ip), vehicle: saline sonified) 100 % of control; under setting [4], 87 % of control; (dose: 200.0 mg/kg/injection, schedule: Q04DX003 (ip), vehicle: saline sonified) 100 % of control; (dose: 400.0 mg/kg/injection, schedule: Q01DX009 (ip), vehicle: saline with Tween-80) 91 % of control; (dose: 400.0 mg/kg/injection, schedule: Q04DX003 (ip), vehicle: saline sonified) 100 % of control.

For `CCCCCCCCCCCC(=O)NCCc1ccc(O)c(O)c1`, the T/C runs as follows: (dose: 25.0 mg/kg/injection, schedule: Q04DX003 (ip), vehicle: Klucel (hydroxypropylcellulose) (HPC)) 113 % of control; (dose: 50.0 mg/kg/injection, schedule: Q04DX003 (ip), vehicle: Klucel (hydroxypropylcellulose) (HPC)) 115 % of control; (dose: 100.0 mg/kg/injection, schedule: Q04DX003 (ip), vehicle: Klucel (hydroxypropylcellulose) (HPC)) 119 % of control and 120 % of control; (dose: 200.0 mg/kg/injection, schedule: Q04DX003 (ip), vehicle: Klucel (hydroxypropylcellulose) (HPC)) 113 % of control and 120 % of control; (dose: 400.0 mg/kg/injection, schedule: Q04DX003 (ip), vehicle: Klucel (hydroxypropylcellulose) (HPC)) 89 % of control.

In the case of `NC(=S)c1ccc(N=Cc2ccco2)cc1`, the T/C reads like this: (dose: 100.0 mg/kg/injection, schedule: Q01DX001 (ip), vehicle: Klucel (hydroxypropylcellulose) (HPC)) 102 % of control; (dose: 200.0 mg/kg/injection, schedule: Q01DX001 (ip), vehicle: Klucel (hydroxypropylcellulose) (HPC)) 104 % of control; (dose: 400.0 mg/kg/injection, schedule: Q01DX001 (ip), vehicle: Klucel (hydroxypropylcellulose) (HPC)) 105 % of control.

Consider `O=C(NCCc1ccccn1)c1cc(Cl)ccc1O`, for which the T/C was 95 % of control (dose: 100.0 mg/kg/injection, schedule: Q04DX002 (ip), vehicle: Klucel (hydroxypropylcellulose) (HPC)); 103 % of control (dose: 200.0 mg/kg/injection, schedule: Q04DX002 (ip), vehicle: Klucel (hydroxypropylcellulose) (HPC)); 100 % of control (dose: 400.0 mg/kg/injection, schedule: Q04DX002 (ip), vehicle: Klucel (hydroxypropylcellulose) (HPC)).

As to `CCN(CC)CCNC(=O)c1nn(C)c(=O)[nH]c1=O`, the T/C is 108 % of control under setting [6], 119 % of control under setting [7] and 99 % of control under setting [8].

For `CS(=O)(=O)OCCN(CCOS(C)(=O)=O)c1ccc(N=Nc2ccccc2)cc1`, the T/C by setting is: (dose: 12.5 mg/kg/injection, schedule: Q01DX009 (ip), vehicle: saline with Tween-80) 156 % of control and 176 % of control; under setting [1], 160 % of control.
